ChEMBL document CHEMBL1144239, “Identification of novel protein kinase CK1 delta (CK1delta) inhibitors through structure-based virtual screening” (Bioorg Med Chem Lett, 2008)

Columns and labels:
[1] = Inhibition of CK1
[2] = biological target: Tyrosine-protein kinase SYK (Homo sapiens, UniProt P43405); test: Inhibition of Syk
[3] = biological target: Dual specificity tyrosine-phosphorylation-regulated kinase 1A (Homo sapiens, UniProt Q13627); test: Inhibition of DYRK1a
[4] = Inhibition of CK2
[5] = biological target: Casein kinase I isoform delta (Homo sapiens, UniProt P48730); test: Inhibition of CK1delta
[6] = biological target: Tyrosine-protein kinase Fgr (Homo sapiens, UniProt P09769); test: Inhibition of Fgr
[7] = Inhibition of PKA
[8] = Cytotoxicity against human ovarian carcinoma cells after 48 hrs; type: functional, cell-based; conditions: Ovarian carcinoma cell
[9] = biological target: ALK tyrosine kinase receptor (Homo sapiens, UniProt Q9UM73); test: Inhibition of GST tagged ALK
[10] = biological target: Casein kinase I isoform alpha (Homo sapiens, UniProt P48729); test: Inhibition of CK1alpha
[11] = biological target: Tyrosine-protein kinase Lyn (Homo sapiens, UniProt P07948); test: Inhibition of Lyn
[12] = biological target: Serine/threonine-protein kinase pim-1 (Homo sapiens, UniProt P11309); test: Inhibition of PIM1
[13] = biological target: Tyrosine-protein kinase CSK (Homo sapiens, UniProt P41240); test: Inhibition of CSK
[14] = biological target: Casein kinase I isoform gamma-1 (Homo sapiens, UniProt Q9HCP0); test: Inhibition of CK1gamma1
[15] = biological target: Homeodomain-interacting protein kinase 2 (Homo sapiens, UniProt Q9H2X6); test: Inhibition of HIPK2
[16] = Cytotoxicity against cisplatin-resistant human C13 cells after 48 hrs; type: functional, cell-based; conditions: C13, 48 h

Sequence of Casein kinase I isoform delta (P48730 whole entry, canonical isoform): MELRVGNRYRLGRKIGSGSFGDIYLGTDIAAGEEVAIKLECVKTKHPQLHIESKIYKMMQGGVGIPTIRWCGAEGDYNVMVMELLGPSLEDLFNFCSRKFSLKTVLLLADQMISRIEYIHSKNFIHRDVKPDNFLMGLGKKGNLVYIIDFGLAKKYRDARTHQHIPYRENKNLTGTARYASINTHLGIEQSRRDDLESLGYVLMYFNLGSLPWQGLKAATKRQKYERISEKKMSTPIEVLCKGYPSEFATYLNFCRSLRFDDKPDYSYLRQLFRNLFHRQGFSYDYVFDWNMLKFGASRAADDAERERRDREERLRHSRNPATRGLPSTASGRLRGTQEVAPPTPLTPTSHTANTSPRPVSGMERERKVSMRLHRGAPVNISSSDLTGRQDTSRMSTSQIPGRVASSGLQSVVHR
Sequence of Casein kinase I isoform alpha (P48729 whole entry, canonical isoform): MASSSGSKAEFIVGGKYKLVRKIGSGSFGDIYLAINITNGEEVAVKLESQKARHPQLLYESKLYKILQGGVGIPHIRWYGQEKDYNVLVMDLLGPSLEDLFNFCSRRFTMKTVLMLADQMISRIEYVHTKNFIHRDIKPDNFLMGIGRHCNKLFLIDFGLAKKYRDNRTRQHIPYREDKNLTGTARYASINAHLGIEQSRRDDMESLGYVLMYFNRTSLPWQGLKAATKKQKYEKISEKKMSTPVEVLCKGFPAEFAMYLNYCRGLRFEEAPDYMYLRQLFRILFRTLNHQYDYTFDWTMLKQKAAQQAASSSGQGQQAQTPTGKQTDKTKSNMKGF
Sequence of Casein kinase I isoform gamma-1 (Q9HCP0 whole entry, canonical isoform): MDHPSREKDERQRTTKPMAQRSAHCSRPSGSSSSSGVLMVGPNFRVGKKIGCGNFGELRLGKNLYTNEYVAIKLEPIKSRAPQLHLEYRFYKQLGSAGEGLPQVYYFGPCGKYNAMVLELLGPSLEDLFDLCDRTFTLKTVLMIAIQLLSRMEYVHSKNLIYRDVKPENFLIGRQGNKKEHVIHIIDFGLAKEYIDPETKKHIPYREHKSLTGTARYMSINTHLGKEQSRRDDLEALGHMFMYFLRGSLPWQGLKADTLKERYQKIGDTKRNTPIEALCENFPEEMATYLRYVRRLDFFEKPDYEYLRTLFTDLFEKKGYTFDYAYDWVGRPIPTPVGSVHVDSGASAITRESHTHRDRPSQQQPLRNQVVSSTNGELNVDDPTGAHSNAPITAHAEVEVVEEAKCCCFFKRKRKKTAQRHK
Sequence of Tyrosine-protein kinase Fgr (P09769 whole entry): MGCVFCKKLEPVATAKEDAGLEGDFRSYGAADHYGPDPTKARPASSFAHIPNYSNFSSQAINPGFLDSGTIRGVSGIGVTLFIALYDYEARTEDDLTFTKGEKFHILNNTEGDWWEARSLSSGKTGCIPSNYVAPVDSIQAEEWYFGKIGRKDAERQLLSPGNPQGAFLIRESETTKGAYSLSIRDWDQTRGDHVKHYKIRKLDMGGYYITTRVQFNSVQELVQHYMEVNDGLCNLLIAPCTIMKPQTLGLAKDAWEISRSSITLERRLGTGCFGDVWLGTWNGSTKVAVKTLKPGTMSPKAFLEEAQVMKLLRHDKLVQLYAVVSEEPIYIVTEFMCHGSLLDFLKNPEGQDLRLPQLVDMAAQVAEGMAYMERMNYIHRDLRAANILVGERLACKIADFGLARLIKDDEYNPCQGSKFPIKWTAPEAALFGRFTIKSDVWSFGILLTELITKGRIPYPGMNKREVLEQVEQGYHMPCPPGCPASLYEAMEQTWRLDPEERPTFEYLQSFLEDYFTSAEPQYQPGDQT
Sequence of Tyrosine-protein kinase CSK (P41240 whole entry, canonical isoform): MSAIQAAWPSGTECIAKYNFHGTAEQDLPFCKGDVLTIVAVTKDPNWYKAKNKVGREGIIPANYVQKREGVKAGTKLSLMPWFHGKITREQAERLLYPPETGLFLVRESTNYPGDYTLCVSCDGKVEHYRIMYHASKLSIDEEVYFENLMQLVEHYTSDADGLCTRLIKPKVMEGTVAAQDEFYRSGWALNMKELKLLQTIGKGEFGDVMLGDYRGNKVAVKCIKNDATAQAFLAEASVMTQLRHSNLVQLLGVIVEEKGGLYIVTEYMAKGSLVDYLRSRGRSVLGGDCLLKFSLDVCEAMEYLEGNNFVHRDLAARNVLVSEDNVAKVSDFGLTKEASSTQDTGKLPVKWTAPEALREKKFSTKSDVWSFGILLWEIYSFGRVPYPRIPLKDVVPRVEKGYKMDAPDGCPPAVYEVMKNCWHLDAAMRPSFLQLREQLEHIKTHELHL
Sequence of Tyrosine-protein kinase Lyn (P07948 whole entry): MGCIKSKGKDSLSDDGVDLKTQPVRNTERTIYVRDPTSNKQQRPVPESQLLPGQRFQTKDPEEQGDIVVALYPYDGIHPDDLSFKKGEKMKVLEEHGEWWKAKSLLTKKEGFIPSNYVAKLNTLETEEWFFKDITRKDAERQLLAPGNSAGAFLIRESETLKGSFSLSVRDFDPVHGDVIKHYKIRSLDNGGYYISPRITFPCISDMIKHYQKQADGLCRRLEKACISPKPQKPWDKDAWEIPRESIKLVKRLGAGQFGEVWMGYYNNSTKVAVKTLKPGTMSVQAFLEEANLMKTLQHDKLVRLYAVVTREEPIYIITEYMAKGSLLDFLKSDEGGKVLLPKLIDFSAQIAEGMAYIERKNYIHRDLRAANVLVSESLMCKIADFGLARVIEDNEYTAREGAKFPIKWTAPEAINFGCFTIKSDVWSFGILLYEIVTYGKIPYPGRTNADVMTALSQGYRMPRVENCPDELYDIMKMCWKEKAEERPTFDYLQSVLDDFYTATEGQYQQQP
Sequence of Homeodomain-interacting protein kinase 2 (Q9H2X6 whole entry): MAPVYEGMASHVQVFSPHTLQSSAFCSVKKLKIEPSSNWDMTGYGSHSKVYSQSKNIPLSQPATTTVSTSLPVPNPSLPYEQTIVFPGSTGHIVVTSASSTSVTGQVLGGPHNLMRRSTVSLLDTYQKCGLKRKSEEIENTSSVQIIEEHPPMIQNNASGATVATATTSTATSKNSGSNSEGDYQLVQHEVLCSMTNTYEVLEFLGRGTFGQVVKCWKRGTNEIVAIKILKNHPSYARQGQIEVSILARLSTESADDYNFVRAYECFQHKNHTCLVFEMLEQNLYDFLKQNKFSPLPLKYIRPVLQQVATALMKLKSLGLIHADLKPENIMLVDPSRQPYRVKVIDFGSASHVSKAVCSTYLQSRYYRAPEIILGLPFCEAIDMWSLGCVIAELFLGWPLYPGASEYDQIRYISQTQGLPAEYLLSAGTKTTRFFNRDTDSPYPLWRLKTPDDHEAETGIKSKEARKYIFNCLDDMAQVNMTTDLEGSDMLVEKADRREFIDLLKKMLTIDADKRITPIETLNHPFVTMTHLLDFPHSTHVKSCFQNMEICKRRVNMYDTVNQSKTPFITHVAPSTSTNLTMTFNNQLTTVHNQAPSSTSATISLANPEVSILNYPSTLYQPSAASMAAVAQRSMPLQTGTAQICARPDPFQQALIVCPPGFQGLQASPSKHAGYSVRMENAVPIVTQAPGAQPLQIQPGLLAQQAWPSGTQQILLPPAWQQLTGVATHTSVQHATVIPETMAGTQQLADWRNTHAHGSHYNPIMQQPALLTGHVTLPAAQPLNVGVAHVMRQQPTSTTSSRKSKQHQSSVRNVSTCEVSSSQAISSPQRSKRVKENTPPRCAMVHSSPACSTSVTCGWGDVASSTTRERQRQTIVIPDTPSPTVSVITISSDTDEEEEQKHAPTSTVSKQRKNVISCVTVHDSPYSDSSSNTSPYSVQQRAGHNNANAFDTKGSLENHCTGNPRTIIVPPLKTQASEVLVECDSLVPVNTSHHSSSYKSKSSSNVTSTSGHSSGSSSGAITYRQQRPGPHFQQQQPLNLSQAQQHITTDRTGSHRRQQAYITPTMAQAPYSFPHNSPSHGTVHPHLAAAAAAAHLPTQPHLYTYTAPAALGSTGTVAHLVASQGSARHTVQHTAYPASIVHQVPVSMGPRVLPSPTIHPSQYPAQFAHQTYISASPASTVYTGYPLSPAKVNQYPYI
Sequence of Serine/threonine-protein kinase pim-1 (P11309 whole entry): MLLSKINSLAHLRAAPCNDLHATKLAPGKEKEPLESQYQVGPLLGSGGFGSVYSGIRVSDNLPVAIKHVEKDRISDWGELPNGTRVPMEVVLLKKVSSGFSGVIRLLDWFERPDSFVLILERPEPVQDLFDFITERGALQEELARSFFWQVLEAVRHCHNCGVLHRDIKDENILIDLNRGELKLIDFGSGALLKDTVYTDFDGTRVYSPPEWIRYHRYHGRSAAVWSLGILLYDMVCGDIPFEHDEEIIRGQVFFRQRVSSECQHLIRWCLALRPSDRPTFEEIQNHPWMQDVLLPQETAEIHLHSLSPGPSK

NC(=O)c1ccc(-c2nc(-c3ccc4c(c3)OCCO4)c(-c3ccccn3)[nH]2)cc1
IC50 [1]: 0.3 µM

NCCNS(=O)(=O)c1ccc(Cl)c2ccncc12
IC50 [1]: 6 µM

Nc1ccc(N)c2c1C(=O)c1ccccc1C2=O
IC50 [2]: > 40 µM | IC50 [3]: 3.6 µM | IC50 [4]: 18 µM | IC50 [5]: 0.33 µM | IC50 [6]: 24 µM | IC50 [7]: > 40 µM | IC50 [8]: 14.4 µM | IC50 [9]: > 40 µM | IC50 [10]: 4 µM | IC50 [11]: > 40 µM | IC50 [12]: 24.7 µM | IC50 [13]: > 40 µM | IC50 [14]: 34 µM | IC50 [15]: 3.3 µM | IC50 [16]: 87.9 µM

Nc1ccc(O)c2c1C(=O)c1ccccc1C2=O
IC50 [5]: 0.66 µM | IC50 [8]: 122 µM | IC50 [10]: 4 µM | IC50 [14]: 26.2 µM | IC50 [16]: 8 µM

COc1cc(OC)c(C=C2C(=O)Nc3ccccc32)c(OC)c1 [IC261]
IC50 [5]: 2.57 µM | IC50 [1]: 1 µM | IC50 [10]: 1.24 µM | IC50 [14]: > 40 µM

O=C1c2ccccc2C(=O)c2c(O)ccc(O)c21 [QUINIZARIN]
IC50 [5]: > 40 µM | IC50 [10]: > 40 µM | IC50 [14]: > 40 µM
